Laboratory results from patent publication US11485776B2, “Antibodies against infectious diseases” (priority 2015, dated 2022).
Converted amounts (≈) assume the structure as drawn.

Tests used:
Assay type in all cases: cell-based
C. tropicalis = experiment: MIC test strips, clinical C. tropicalis
Description: (§1) C. albicans (SC 5314), C. kruesi (clinical isolate), C. tropicalis (BCRC 20520), C. parapsilosis (BCRC 20515) and C. glabrate (BCRC 20586) were kindly provided by Dr. Ching-Hua Su from Taipei Medical University, Taipei, Taiwan. […] Candida species were cultured in YPD medium and their identities were confirmed by CHROMagar Candida plate (CHROMagar, Paris, France).

C. albicans = experiment: MIC test strips, clinical C. albicans
Description: as §1

C. glabrate = experiment: MIC test strips, clinical C. glabrate
Description: as §1

C. parapsilosis = experiment: MIC test strips, clinical C. parapsilosis
Description: as §1

[1] = specimen CT11-52, C. tropicalis
[2] = specimen CT12-54, C. tropicalis
[3] = specimen CP6-20, C. parapsilosis
[4] = specimen CP7-17, C. parapsilosis
[5] = specimen CP8-48, C. parapsilosis

Question: For `OC(Cn1cncn1)(Cn1cncn1)c1ccc(F)cc1F` [fluconazole], which Interpretation (C. tropicalis; specimen CT6-29, C. tropicalis) is on record?
Answer: R

Question: And the MIC (C. tropicalis; specimen CT6-29, C. tropicalis)?
Answer: 32 µg/ml

Question: And the Interpretation (C. tropicalis; specimen CT6-50, C. tropicalis)?
Answer: R

Question: What about the MIC (C. tropicalis; specimen CT6-50, C. tropicalis) of the same compound?
Answer: 8 µg/mL (≈ 26.1 µM)

Question: And the Interpretation (C. tropicalis; [1])?
Answer: R

Question: And the MIC (C. tropicalis; [1])?
Answer: 32 µg/ml

Question: What about the Interpretation (C. tropicalis; [2]) of the same compound?
Answer: R

Question: And the MIC (C. tropicalis; [2])?
Answer: 8 µg/mL (≈ 26.1 µM)

Question: And the Interpretation (C. albicans; specimen CA6-17, C. albicans)?
Answer: R

Question: What about the MIC (C. albicans; specimen CA6-17, C. albicans, read at 80% inhibition) of the same compound?
Answer: 16 µg/mL (≈ 52.2 µM)

Question: And the Interpretation (C. albicans; specimen CA7-3, C. albicans)?
Answer: S

Question: And the MIC (C. albicans; specimen CA7-3, C. albicans)?
Answer: 2 µg/mL (≈ 6.53 µM)

Question: And the Interpretation (C. albicans; specimen CA7-26, C. albicans)?
Answer: R

Question: And the MIC (C. albicans; specimen CA7-26, C. albicans)?
Answer: 8 µg/mL (≈ 26.1 µM)

Question: What about the Interpretation (C. albicans; specimen CA7-30, C. albicans) of the same compound?
Answer: S

Question: What about the MIC (C. albicans; specimen CA7-30, C. albicans) of the same compound?
Answer: 1 µg/mL (≈ 3.27 µM)

Question: What about the Interpretation (C. albicans; specimen CA10-50, C. albicans) of the same compound?
Answer: S

Question: And the MIC (C. albicans; specimen CA10-50, C. albicans)?
Answer: 2 µg/mL (≈ 6.53 µM)

Question: And the Interpretation (C. albicans; specimen CA10-65, C. albicans)?
Answer: S

Question: And the MIC (C. albicans; specimen CA10-65, C. albicans)?
Answer: 1 µg/mL (≈ 3.27 µM)

Question: What about the Interpretation (C. glabrate; specimen CG5-8, C. glabrate) of the same compound?
Answer: R

Question: And the MIC (C. glabrate; specimen CG5-8, C. glabrate)?
Answer: 64 µg/mL (≈ 209 µM)

Question: What about the Interpretation (C. glabrate; specimen CG5-66, C. glabrate) of the same compound?
Answer: S

Question: And the MIC (C. glabrate; specimen CG5-66, C. glabrate)?
Answer: 16 µg/mL (≈ 52.2 µM)

Question: And the Interpretation (C. glabrate; specimen CG7-37, C. glabrate)?
Answer: S

Question: What about the MIC (C. glabrate; specimen CG7-37, C. glabrate) of the same compound?
Answer: 32 µg/ml

Question: And the Interpretation (C. glabrate; specimen CG8-11, C. glabrate)?
Answer: R

Question: And the MIC (C. glabrate; specimen CG8-11, C. glabrate)?
Answer: 64 µg/mL (≈ 209 µM)

Question: And the Interpretation (C. parapsilosis; [3])?
Answer: R

Question: And the MIC (C. parapsilosis; [3])?
Answer: 16 µg/mL (≈ 52.2 µM)

Question: And the Interpretation (C. parapsilosis; [4])?
Answer: S

Question: And the MIC (C. parapsilosis; [4])?
Answer: 8 µg/mL (≈ 26.1 µM)

Question: What about the Interpretation (C. parapsilosis; specimen CP8-20, C. parapsilosis) of the same compound?
Answer: R

Question: And the Interpretation (C. parapsilosis; [5])?
Answer: S

Question: What about the MIC (C. parapsilosis; [5]) of the same compound?
Answer: 4 µg/mL (≈ 13.1 µM)

Question: And the Interpretation (C. parapsilosis; specimen CP12-37, C. parapsilosis)?
Answer: R
